The values that follow come from patent US6541492B1, “Thiazole derivatives as PPAR gamma ligands” (SmithKline Beecham Corporation, priority 1999, dated 2003).

For series [1], the system named is C3H10T1/2 clone 8 murine fibroblasts. The series can be described thus: Osteoblast differentiation assay (alkaline phosphatase activity). The format is cell-based. The protocol: C3H10T1/2 clone 8 murine fibroblasts (American Type Culture Collection) below passage 22 were maintained in Dulbecco's modified Eagle's medium (Life Technologies, Inc.) supplemented with 10% fetal calf serum and 100 units/mL penicillin G and 100 microgram/mL streptomycin. One day after passage into 96-well microtiter plates (12.5×10^3 cells/cm^2), the cells were treated with 625 nanomolar all-trans retinoic acid, 1 micromolar rosiglitazone and 1 micromolar insulin (Sigma, St. Louis, Mo.). Vehicle or test compounds, which had been solublized to 10 mM in DMSO and then serially diluted from 2e-5 M to 4e-8 M into medium, were added. After 7 days, alkaline phosphatase activity, a surrogate measure for osteogenesis, was determined using Sigma-Fast pNPP substrate (N-2770) according to the manufacturer's specifications (Sigma, St. Louis, Mo.) (see Paulik, M. A. and Lenhard, J. M., Cell Tissue Res., (1997), Vol. 290, pp 79-87). The substrate (50 microliters/well) was incubated with the cells at 37° C. for 10 min and the absorbance read at 405 nm. The % maximum stimulation of alkaline phosphatase activity was calculated relative to cells treated with 10 micromolar all-trans retinoic acid.

The test system of the next series is C57BL/KsJ db/db mice. In words: In vivo assay in db/db mice. To be noted: male db/db mice, 50 mg/kg oral once daily, mean ± standard error. The protocol: Age and weight matched male C57BL/KsJ db/db mice (Jackson Labs, Bar Harbor, Me.) were housed 5 animals/cage at 72° F. and 50% relative humidity with a 12 h light and dark cycle, and fed chow diet (NIH R&M/Auto 6F-Ovals 5K67, PMI Feeds® Inc., Richmond, Ind.). Animals starting at 6 weeks of age were orally gavaged once daily (8:00-9:00 AM) with TPGS/PG (25/75) or 50 mg/kg the compound of Example 4 in TPGS/PG (25/75). After 2 weeks of dosing, the animals were anesthetized with isofluorane, blood was drawn by cardiac puncture, and non-fasting measurements of glucose, insulin, and glycosylated hemoglobin (GHB) were obtained. Blood glucose was determined using an automated chemistry analyzer (Technicon Axon). GHB measurements were performed using a Columnmate Analyzer (Helena Instrument). Insulin concentrations in serum were measured by chemiluminescence using an Origen Analyzer (Igen Inc.). Body weights were recorded at the beginning and end of the study. All data was calculated as the mean and standard error from experiments performed on ≧9 animals per treatment group.

Take `CCCCCC[C@@H]1S[C@@H](CC(=O)N(CCCC)CCCC)C(=O)N1CCCCc1ccc(C(=O)O)cc1` (relative stereo) [Example 4, (2S*,5S*)-4-(4-(4-Carboxyphenyl)butyl)-2-hexyl-4-oxo-5-thiazolidine N,N-Dibutylacetamide]: the “% Stimulation” value in series [1] (% maximum stimulation of alkaline phosphatase activity relative to cells treated with 10 micromolar all-trans retinoic acid) was 71%. Further, the pEC50 in series [1] (alkaline phosphatase activity after 7 days, with 625 nanomolar all-trans retinoic acid, 1 micromolar rosiglitazone, 1 micromolar insulin) was 5.7. This molecule also gave a GBH with C57BL/KsJ db/db mice (glycosylated hemoglobin, 2 weeks) of 6.6 ± 0.3%. Further, in the series with C57BL/KsJ db/db mice (2 weeks, non-fasting blood), the Glucose worked out at 380 ± 30 mg/dL. In the series with C57BL/KsJ db/db mice (beginning to end of 2 week study), the “Body Weight Change” value is 1.1 ± 0.5 g.

The term pEC50 denotes −log10 of the EC50, conventionally taken in molar units.
